Assay results taken from paper PMC9464622, “The collectin SP-A and its trimeric recombinant fragment protect alveolar epithelial cells from the cytotoxic and proinflammatory effects of human cathelicidin in vitro” (Frontiers in Immunology, 2022).

How the values were obtained:
human SP-A = target: T1, human SP-A (Homo sapiens, UniProt Q8IWL1+Q8IWL2); test: Binding of LL-37 to SP-A by intrinsic tryptophan fluorescence titration
T1 construct: Human SP-A was isolated from bronchoalveolar lavage fluid of patients with alveolar proteinosis; from tissue; host or cells: bronchoalveolar lavage fluid of patients with alveolar proteinosis
T1 sequence (Q8IWL2 21-248): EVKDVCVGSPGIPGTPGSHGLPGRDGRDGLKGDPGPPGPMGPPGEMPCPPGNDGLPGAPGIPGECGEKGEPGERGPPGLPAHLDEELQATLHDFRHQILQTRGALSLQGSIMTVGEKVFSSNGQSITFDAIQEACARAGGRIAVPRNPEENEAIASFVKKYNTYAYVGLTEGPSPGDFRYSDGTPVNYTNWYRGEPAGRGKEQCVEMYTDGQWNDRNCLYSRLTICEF
T1 sequence (Q8IWL1 21-248): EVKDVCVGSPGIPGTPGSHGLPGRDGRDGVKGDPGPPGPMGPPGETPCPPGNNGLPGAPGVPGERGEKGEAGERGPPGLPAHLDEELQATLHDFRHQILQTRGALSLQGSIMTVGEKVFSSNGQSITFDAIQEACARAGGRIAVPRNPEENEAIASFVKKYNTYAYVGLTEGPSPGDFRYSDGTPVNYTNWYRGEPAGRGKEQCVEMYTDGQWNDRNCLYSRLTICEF
Experimental: (§1) Fluorescence measurements were carried out in 5 x 5 quartz cuvettes using an SLM-Aminco AB-2 spectrofluorimeter equipped with a thermostated cuvette holder (± 0.1°C; Spectronic, Waltham, MA, USA). The slit widths were 4 nm for the excitation and emission beams. The tryptophan fluorescence emission spectrum of SP-A and rfhSP-A was recorded from 305 to 400 nm on excitation at 295 nm at 25°C in 5 mM Tris HCl buffer (pH 7.4), with or without 150 mM NaCl. Subsequently, the titration experiment was started by adding increasing amounts of LL-37 to the protein solution in the cuvette. The fluorescence intensity readings were corrected for the dilution caused by LL-37 addition.
(§2) The change in the fluorescence of SP-A (or rfhSP-A) at the emission wavelength maximum was monitored as a function of LL-37 concentration, and the titration data were analyzed by nonlinear least squares fitting to the Hill equation, as previously reported ([24], [35], [36]):
(§3) (1) ΔF/ΔFmax=[L]^nH/([L]^nH+KD)
(§4) where ΔF is the change in fluorescence intensity at 337 nm relative to the intensity of free SP-A (for free rfhSP-A, the emission wavelength maximum was 342 nm); ΔFmax is the change in fluorescence intensity at saturating LL-37 concentrations; KD is the apparent equilibrium dissociation constant; [L] is the molar concentration of free LL-37; and nH is the Hill coefficient.

[1] = target: T2, rfhSP-A (recombinant trimeric fragment of human SP-A) (Homo sapiens, UniProt Q8IWL2); test: Binding of LL-37 to rfhSP-A by intrinsic tryptophan fluorescence titration
T2 construct: including the globular carbohydrate recognition domain (CRD), neck, and 8 x Gly-Xaa-Yaa repeats of the collagen stalk; His6 (N, cleaved yes); NT* solubility tag (spider silk) with coxsackievirus 3C protease site (N, cleaved yes); made in house; host or cells: Escherichia coli BL21 (DE3)
T2 sequence (Q8IWL2 77-248 limits assumed): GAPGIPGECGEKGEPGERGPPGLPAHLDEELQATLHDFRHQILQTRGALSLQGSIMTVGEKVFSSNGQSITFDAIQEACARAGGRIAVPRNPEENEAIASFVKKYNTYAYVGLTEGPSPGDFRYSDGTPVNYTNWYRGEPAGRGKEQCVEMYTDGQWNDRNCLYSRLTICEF
Experimental: as §1, §2, §3, §4

A549 cells [2] = assay type: cell-based, human; conditions: LL-37 2.5 µM, SP-A 0.15 µM, rfhSP-A 0.88 µM, 30 min 37°C; complexes vs LL-37 alone p < 0.001
Experimental: (§5) Human cell lines of alveolar basal epithelium A549 (ATTC® CCL-185TM) and monocytes U937 (ATTC® CRL-1593.2TM) were incubated in RPMI 1640 supplemented with 10% (v/v) heat-inactivated fetal bovine serum (FBS), antibiotics (100 U/ml penicillin and 100 μg/ml streptomycin), and 2 mM L-glutamine (BioWhittacker).
(§6) Incorporation of Sytox Green in A549 cells was analyzed by confocal microscopy and flow cytometry analysis.
For confocal microscopy analysis, cells were seeded to a density of 30,000 cells per well in a 24-well tissue culture plate for 18 h in RPMI 1640 tissue culture medium supplemented with 100 U/ml penicillin, 100 μg/ml streptomycin, 2 mM L-glutamine, and with 5% FBS. The following day, Sytox Green (1 µM, final concentration) was added to the wells 10 minutes before the addition of 2.5 µM (11.25 µg/ml) LL-37 and/or 0.15 µM (100 µg/ml) SP-A or 0.88 µM (50 µg/ml) rfhSP-A for an additional 30 minutes. At the end of the incubation, fluorescence and differential interference contrast micrographs were taken under an Olympus FV1200 confocal system. Quantification of permeabilized cells (Sytox Green+) per cell number was performed using Image J software on each of 12 micrographs per treatment and experiment.

A549 cells [3] = assay type: cell-based, human; conditions: LL-37 2.5 µM, SP-A 0.15 µM, rfhSP-A 0.88 µM, 15-60 min 37°C; complexes vs LL-37 alone p < 0.001
Experimental: as §5, §6
(§7) For flow cytometry analysis, A549 cells were grown in RPMI 1640 medium supplemented with antibiotics, 2 mM L-glutamine, and 10% FBS. […] A-438079 stock was resuspended in DMSO to a final concentration of 30 mM and aliquots were stored at 4°C. Cell fluorescence was analyzed after 15, 30 and 60 minutes in a Becton-Dickinson FACS Calibur cytometer, using Cell Quest software.

A549 cells [4] = test: Propidium iodide uptake, A549; assay type: cell-based, human; conditions: LL-37 2.5 µM, SP-A 0.15 µM, rfhSP-A 0.88 µM, 15-60 min, 37°C, flow cytometry
Experimental: as §5
(§8) The incorporation of PI in A549 and U937 cell lines was analyzed by flow cytometry. Cells were cultured 18 h in RPMI 1640 medium supplemented with antibiotics, 2 mM L-glutamine, and 10% FBS. Then, cells were harvested and incubated in PBS with 10 µg/ml PI in the presence or absence of 2.5 µM LL-37, 0.15 µM SP-A or 0.88 µM rfhSP-A, and combinations thereof. A549 were incubated at 500,000 cells/ml density and U937 at 1,000,000 cells/ml. PI incorporation was measured after 15, 30, 45 and 60 minutes by flow cytometry. In some experiments, cells were pre-treated with 1 or 10 µM A-438079 or vehicle (DMSO).

U937 cells = test: Propidium iodide uptake, U937; assay type: cell-based, human; conditions: LL-37 2.5 µM, SP-A 0.15 µM, rfhSP-A 0.88 µM, 15-60 min, 37°C, flow cytometry
Experimental: as §5, §8

[5] = tested on: P2X7 channels, A549 pneumocytes; assay type: cell-based, human; conditions: A-438079 10 µM, 15 min pre-treatment; LL-37 2.5 µM, SP-A 0.15 µM, rfhSP-A 0.88 µM, 1 hour
Experimental: as §7, §8

[6] = tested on: P2X7 channels, U937 monocytes; assay type: cell-based, human; conditions: A-438079 10 µM, 15 min pre-treatment; LL-37 2.5 µM, SP-A 0.15 µM, rfhSP-A 0.88 µM, 1 hour
Experimental: as §7, §8

CC[C@H](C)[C@H](NC(=O)[C@H](CCCCN)NC(=O)[C@H](CCC(=O)O)NC(=O)[C@H](CCCCN)NC(=O)[C@H](CO)NC(=O)[C@H](CCCCN)NC(=O)[C@H](CCCNC(=N)N)NC(=O)[C@H](Cc1ccccc1)NC(=O)[C@H](Cc1ccccc1)NC(=O)[C@H](CC(=O)O)NC(=O)CNC(=O)[C@H](CC(C)C)NC(=O)[C@@H](N)CC(C)C)C(=O)NCC(=O)N[C@@H](CCCCN)C(=O)N[C@@H](CCC(=O)O)C(=O)N[C@@H](Cc1ccccc1)C(=O)N[C@@H](CCCCN)C(=O)N[C@@H](CCCNC(=N)N)C(=O)N[C@H](C(=O)N[C@H](C(=O)N[C@@H](CCC(N)=O)C(=O)N[C@@H](CCCNC(=N)N)C(=O)N[C@H](C(=O)N[C@@H](CCCCN)C(=O)N[C@@H](CC(=O)O)C(=O)N[C@@H](Cc1ccccc1)C(=O)N[C@@H](CC(C)C)C(=O)N[C@@H](CCCNC(=N)N)C(=O)N[C@@H](CC(N)=O)C(=O)N[C@@H](CC(C)C)C(=O)N[C@H](C(=O)N1CCC[C@H]1C(=O)N[C@@H](CCCNC(=N)N)C(=O)N[C@H](C(=O)N[C@@H](CCC(=O)O)C(=O)N[C@@H](CO)C(=O)O)[C@@H](C)O)C(C)C)[C@@H](C)CC)C(C)C)[C@@H](C)CC [LL-37]
Kd (human SP-A): 0.45 ± 0.01 nM
Kd [1]: 1.2 ± 0.7 nM
Sytox Green incorporation, A549, confocal (A549 cells [2]): induced Sytox Green incorporation in human pneumocytes
Sytox Green incorporation, A549, flow cytometry (A549 cells [3]): induced Sytox Green incorporation in human pneumocytes
PI uptake, A549 pneumocytes (A549 cells [4]): induced significant PI incorporation into human cells as a function of time
PI uptake, U937 monocytes (U937 cells): induced significant PI incorporation into human cells as a function of time
LL-37-induced dye uptake with / without P2X7 inhibitor, A549 [5]: partially mediated by activation of P2X7 channels
LL-37-induced dye uptake with / without P2X7 inhibitor, U937 [6]: partially mediated by activation of P2X7 channels
